Among the data in patent EP0640594A1, “Hydantoin derivative as metalloprotease inhibitor” (FUJIREBIO INC., priority 1993, dated 1995) are IC50 values, retold here.

Molecules are shown by their SMILES.

For the first test, the target named is T1, NEP (Rattus norvegicus, UniProt P07861).
T1 construct: The fractions with the NEP activity were collected, and was used as the enzyme source for the test; from tissue; host or cells: kidneys of male SD rats
T1 sequence (P07861 1-750): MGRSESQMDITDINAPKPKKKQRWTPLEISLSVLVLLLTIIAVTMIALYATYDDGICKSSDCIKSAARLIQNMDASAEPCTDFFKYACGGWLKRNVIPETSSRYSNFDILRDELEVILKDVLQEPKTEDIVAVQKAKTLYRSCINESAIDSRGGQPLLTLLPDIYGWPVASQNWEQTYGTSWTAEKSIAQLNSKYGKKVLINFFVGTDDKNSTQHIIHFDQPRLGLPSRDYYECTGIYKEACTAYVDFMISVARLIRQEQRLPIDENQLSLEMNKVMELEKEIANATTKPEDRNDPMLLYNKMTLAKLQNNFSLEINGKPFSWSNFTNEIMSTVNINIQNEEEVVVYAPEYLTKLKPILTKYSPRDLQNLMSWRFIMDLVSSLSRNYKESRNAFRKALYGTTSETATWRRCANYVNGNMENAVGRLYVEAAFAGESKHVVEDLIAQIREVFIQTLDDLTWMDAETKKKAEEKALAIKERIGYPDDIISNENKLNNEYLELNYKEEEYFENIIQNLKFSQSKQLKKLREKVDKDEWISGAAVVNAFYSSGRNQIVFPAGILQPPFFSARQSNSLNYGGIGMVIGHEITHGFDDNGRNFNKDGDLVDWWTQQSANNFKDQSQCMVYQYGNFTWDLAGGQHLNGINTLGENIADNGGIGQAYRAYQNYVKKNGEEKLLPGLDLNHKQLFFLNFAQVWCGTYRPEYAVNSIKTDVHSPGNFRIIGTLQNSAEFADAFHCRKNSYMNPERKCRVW
As to the kind of experiment: in vitro inhibitory activity on NEP. It counts as biochemical. The settings on record: NEP from kidneys of male SD rats; 0.4 mM glutaryl-Ala-Ala-Phe-4-methoxy-β-naphthylamide, pH 7.4, 37°C, 1 hour. The procedure: NEP was prepared as follows in accordance with the process as described in Peptide, 9, 173 (1988). Kidneys of male SD rats were homogenized with 10 times by volume of a tris/HCl buffer solution (pH 7.0) containing mannitol and magnesium chloride. The homogenate was centrifuged (700 × g) to give a supernatant liquid. To the supernatant liquid was added n-octyl-β-D-glucoside in an amount to give a final concentration of 1 %, followed by stirring at 4°C for 1 hour, thereby solubilizing the enzyme. The solution was dialyzed against 5 mM HEPES/0.1% Triton (pH 7.4). The inner liquid was applied to a DE-52 column (2.5 cm i.d. × 15 cm) equilibrated with 5 mM HEPES/0.1% Triton (pH 7.4). The column was eluted with 500 ml of a NaCl solution having a linear concentration gradient of 0-300 mM. The fractions with the NEP activity were collected, and was used as the enzyme source for the test.
The inhibitory activity on NEP was measured according to the method described in Biochemistry, 20, 4942 (1981). That is, 250 µl of a 50 mM tris/HCl buffer solution (pH 7.4) containing 0.4 mM of glutaryl-Ala-Ala-Phe-4-methoxy-β-naphthylamide, 0.25 unit/ml of leucine aminopeptidase, a predetermined amount of the sample compound and NEP was prepared and the reaction was carried out at 37°C for 1 hour. The amount of 4-methoxy-β-naphthylamide produced by the NEP activity was measured to determine the inhibitory activity.
Consider `O=C1CN(C2CCCC2)C(=O)N1C(CS)Cc1ccccc1` (centres unmarked) [Example 1, 1-cyclopentyl-3-(1-mercapto-3-phenyl-2-propyl)hydantoin], for which the IC50 was found to be 450 nM.
Consider `O=C1CN(C2CCCCC2)C(=O)N1C(CS)Cc1ccccc1` (centres unmarked) [Example 3, 1-cyclohexyl-3-(1-mercapto-3-phenyl-2-propyl)hydantoin], for which the IC50 is 250 nM.
With `O=C(O)CC1C(=O)N(C(CS)Cc2ccccc2)C(=O)N1C1CCCC1` (centres unmarked) [Example 18, 5-(carboxymethyl)-1-cyclopentyl-3-(1-mercapto-3-phenyl-2-propyl)hydantoin], the IC50 was determined as 250 nM.
Still for that read-out and setting: the value for `O=C(O)CCC1C(=O)N(C(CS)Cc2ccccc2)C(=O)N1C1CCCC1` (centres unmarked) [Example 19, 5-(2-carboxyethyl)-1-cyclopentyl-3-(1-mercapto-3-phenyl-2-propyl)hydantoin] was 160 nM; that for `O=C(O)CN1CC(=O)N(C(CS)Cc2ccccc2)C1=O` (centres unmarked) [Example 20, 1-(carboxymethyl)-3-(1-mercapto-3-phenyl-2-propyl)hydantoin] was 230 nM.
Still for that read-out and setting: the value for `CC(C)[C@@H](C(=O)O)N1CC(=O)N(C(CS)Cc2ccccc2)C1=O` (stereo partly drawn) [Example 21, 1-[(1S)-1-carboxy-2-methylpropyl)-3-(1-mercapto-3-phenyl-2-propyl)hydantoin] was 52 nM.
As for `C[C@@H](C(=O)O)N1CC(=O)N(C(CS)Cc2ccccc2)C1=O` (stereo partly drawn) [Example 26, 1-[(1S)-1-carboxyethyl]-3-(1-mercapto-3-phenyl-2-propyl)hydantoin], the IC50 is 170 nM.
On the same count and under the same terms, the value for `O=C(O)[C@H](Cc1ccccc1)N1CC(=O)N(C(CS)Cc2ccccc2)C1=O` (stereo partly drawn) [Example 27, 1-[(1S)-1-carboxy-2-phenylethyl]-3-(1-mercapto-3-phenyl-2-propyl)hydantoin] was 260 nM; that for `CC(C)C[C@@H](C(=O)O)N1CC(=O)N(C(CS)Cc2ccccc2)C1=O` (stereo partly drawn) [Example 28, 1-[(1S)-1-carboxy-3-methylbutyl]-3-(1-mercapto-3-phenyl-2-propyl)hydantoin] was 220 nM.
Still for that read-out and setting: then `CCC(C)[C@@H](C(=O)O)N1CC(=O)N(C(CS)Cc2ccccc2)C1=O` (stereo partly drawn) [Example 29, 1-[(1S)-1-carboxy-2-methylbutyl]-3-(1-mercapto-3-phenyl-2-propyl)hydantoin], with 56 nM; and `O=C(O)CN1C(=O)N(C(CS)Cc2ccccc2)C(=O)C12CCCC2` (centres unmarked) [Example 41, 1-(carboxymethyl)-3-(1-mercapto-3-phenyl-2-propyl)hydantoin-5-spirocyclopentane], with 460 nM.
Still for that read-out and setting: the value for `O=C(O)CN1C(=O)N(C(CS)Cc2ccccc2)C(=O)C12Cc1ccccc1C2` (centres unmarked) [Example 44, 1-(carboxymethyl)-3-(1-mercapto-3-phenyl-2-propyl)hydantoin-5-spiro-2'-indane] was 99 nM; that for `O=C1CN(N2CCCCC2)C(=O)N1C(CS)Cc1ccccc1` (centres unmarked) [Example 45, 3-(1-mercapto-3-phenyl-2-propyl)-1-piperidinylhydantoin] was 59 nM; that for `O=C1CN(N2CCOCC2)C(=O)N1C(CS)Cc1ccccc1` (centres unmarked) [Example 46, 3-(1-mercapto-3-phenyl-2-propyl)-1-(4-morpholinyl)hydantoin] was 110 nM.
`O=C(O)CN1C(=O)N(C(CS)Cc2ccccc2)C(=O)C1C1CCCC1` (centres unmarked) [Example 51, 1-(carboxymethyl)-5-cyclopentyl-3-(1-mercapto-3-phenyl-2-propyl)hydantoin] showed a half-inhibitory concentration (IC50) of 560 nM.
On the same count and under the same terms, the value for `O=C(O)CN1C(=O)N(C(CS)Cc2ccccc2)C(=O)C1C(c1ccccc1)c1ccccc1` (centres unmarked) [Example 53, 1-(carboxymethyl)-5-(diphenylmethyl)-3-(1-mercapto-3-phenyl-2-propyl)hydantoin] was 230 nM; that for `O=C(O)CN1C(=O)N(C(CS)Cc2ccccc2)C(=O)C1c1ccc(O)cc1` (centres unmarked) [Example 55, 1-(carboxymethyl)-5-(4-hydroxyphenyl)-3-(1-mercapto-3-phenyl-2-propyl)hydantoin] was 90 nM; that for `COc1ccc(C2C(=O)N(C(CS)Cc3ccccc3)C(=O)N2CC(=O)O)cc1` (centres unmarked) [Example 56, 1-(carboxymethyl)-3-(1-mercapto-3-phenyl-2-propyl)-5-(4-methoxyphenyl)hydantoin] was 6.5 nM.
Same read-out and setting: then `CC(C)Oc1ccc(C2C(=O)N(C(CS)Cc3ccccc3)C(=O)N2CC(=O)O)cc1` (centres unmarked) [Example 58, 1-(carboxymethyl)-3-(1-mercapto-3-phenyl-2-propyl)-5-[4-(2-propyloxy)phenyl]hydantoin], with 28 nM; and `O=C(O)CN1C(=O)N(C(CS)Cc2ccccc2)C(=O)C1C1c2ccccc2-c2ccccc21` (centres unmarked) [Example 60, 1-(carboxymethyl)-5-(9-fluorenyl)-3-(1-mercapto-3-phenyl-2-propyl)hydantoin], with 180 nM; and `CC(C)CC(CS)N1C(=O)CN(CC(=O)O)C1=O` (centres unmarked) [Example 66, 1-(carboxymethyl)-3-(1-mercapto-4-methyl-2-pentyl)-hydantoin], with 700 nM.
Same read-out and setting: the value for `O=C(O)Cn1c(=O)n(C(CS)Cc2ccccc2)c(=O)n1C1CCCC1` (centres unmarked) [Example 72, 1-(carboxymethyl)-2-cyclopentyl-4-(1-mercapto-3-phenyl-2-propyl)urazole] was 400 nM.

For a further test, the target named is ACE (Homo sapiens, UniProt P12821). As to the kind of experiment: in vitro inhibitory activity on ACE. It counts as biochemical. The settings on record: 0.016 unit/ml ACE; 2.0 mM hippuryl-L-histidyl-L-leucine, pH 8.4, 37°C, 30 minutes. The procedure: The inhibitory activity on ACE was measured according to the method described in Biochem. Pharmacolo., 20, 1637 (1971). That is, a 100 mM boric acid/sodium carbonate buffer solution (pH 8.4) containing 2.0 mM of hippuryl-L-histidyl-L-leucine, 0.016 unit/ml of ACE, 0.8 M of NaCl, and a predetermined amount of the sample compound was prepared and the reaction was carried out at 37°C for 30 minutes. The amount of hippuric acid produced by the ACE activity was measured to determine the inhibitory activity.
Sequence of ACE (P12821 30-1306, species assumed): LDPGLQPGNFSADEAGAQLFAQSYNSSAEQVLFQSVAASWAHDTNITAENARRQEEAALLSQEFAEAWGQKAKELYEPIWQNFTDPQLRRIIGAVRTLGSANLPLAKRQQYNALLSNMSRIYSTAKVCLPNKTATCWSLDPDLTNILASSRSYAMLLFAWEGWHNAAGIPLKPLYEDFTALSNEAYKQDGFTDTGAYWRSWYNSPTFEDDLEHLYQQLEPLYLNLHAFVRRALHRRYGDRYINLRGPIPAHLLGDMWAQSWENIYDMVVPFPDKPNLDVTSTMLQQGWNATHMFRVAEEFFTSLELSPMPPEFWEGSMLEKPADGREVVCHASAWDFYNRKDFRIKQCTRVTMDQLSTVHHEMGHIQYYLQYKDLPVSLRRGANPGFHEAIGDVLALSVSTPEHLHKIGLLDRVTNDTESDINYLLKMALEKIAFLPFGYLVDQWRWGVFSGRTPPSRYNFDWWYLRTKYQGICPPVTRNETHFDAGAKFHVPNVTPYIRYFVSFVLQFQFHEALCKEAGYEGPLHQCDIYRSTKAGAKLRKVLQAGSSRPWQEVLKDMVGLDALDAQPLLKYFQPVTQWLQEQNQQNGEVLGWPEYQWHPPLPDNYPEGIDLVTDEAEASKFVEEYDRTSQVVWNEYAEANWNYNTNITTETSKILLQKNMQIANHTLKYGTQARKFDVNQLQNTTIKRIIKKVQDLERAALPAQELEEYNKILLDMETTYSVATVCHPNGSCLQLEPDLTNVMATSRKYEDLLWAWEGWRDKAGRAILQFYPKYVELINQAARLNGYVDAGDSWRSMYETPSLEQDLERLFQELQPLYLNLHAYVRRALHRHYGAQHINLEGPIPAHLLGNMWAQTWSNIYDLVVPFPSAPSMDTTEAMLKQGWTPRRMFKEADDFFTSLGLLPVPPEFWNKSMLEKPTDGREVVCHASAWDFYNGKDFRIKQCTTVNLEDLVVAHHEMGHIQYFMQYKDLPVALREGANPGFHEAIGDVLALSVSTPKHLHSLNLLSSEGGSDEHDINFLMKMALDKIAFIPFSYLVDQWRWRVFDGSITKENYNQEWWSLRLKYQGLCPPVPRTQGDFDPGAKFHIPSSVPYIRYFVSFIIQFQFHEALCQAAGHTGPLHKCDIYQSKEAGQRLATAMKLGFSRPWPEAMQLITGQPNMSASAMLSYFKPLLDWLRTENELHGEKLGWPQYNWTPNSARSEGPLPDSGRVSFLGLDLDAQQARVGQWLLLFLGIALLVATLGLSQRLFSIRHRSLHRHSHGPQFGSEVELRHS
For `O=C(O)CN1CC(=O)N(C(CS)Cc2ccccc2)C1=O` (centres unmarked) [Example 20, 1-(carboxymethyl)-3-(1-mercapto-3-phenyl-2-propyl)hydantoin], the IC50 stood at 5400 nM.
Same read-out and setting: the value for `O=C1CN(C2(C(=O)O)CCCCC2)C(=O)N1C(CS)Cc1ccccc1` (centres unmarked) [Example 24, 1-(1-carboxycyclohexyl)-3-(1-mercapto-3-phenyl-2-propyl) hydantoin] was 5200 nM.
Same read-out and setting: then `O=C(O)CN1C(=O)N(C(CS)Cc2ccccc2)C(=O)C12CCCCC2` (centres unmarked) [Example 34], with 200 nM.
The same measure, in the same setting: then `CC(C)C1C(=O)N(C(CS)Cc2ccccc2)C(=O)N1CC(=O)O` (centres unmarked) [Example 36, 1-(carboxymethyl)-5-(1-methylethyl)-3-(1-mercapto-3-phenyl-2-propyl)hydantoin], with 3400 nM; and `CC1(C)C(=O)N(C(CS)Cc2ccccc2)C(=O)N1CC(=O)O` (centres unmarked) [Example 40, 1-(carboxymethyl)-5,5-dimethyl-3-(1-mercapto-3-phenyl-2-propyl)hydantoin], with 2400 nM.
Regarding `O=C(O)CN1C(=O)N(C(CS)Cc2ccccc2)C(=O)C12CCCC2` (centres unmarked) [Example 41, 1-(carboxymethyl)-3-(1-mercapto-3-phenyl-2-propyl)hydantoin-5-spirocyclopentane], the concentration for half-maximal inhibition (IC50) is 460 nM.
The same measure, in the same setting: then `CCC(C)C1C(=O)N(C(CS)Cc2ccccc2)C(=O)N1CC(=O)O` (centres unmarked) [Example 42, 5-(2-butyl)-1-(carboxymethyl)-3-(1-mercapto-3-phenyl-2-propyl)hydantoin], with 1600 nM; and `CC(O)C1C(=O)N(C(CS)Cc2ccccc2)C(=O)N1CC(=O)O` (centres unmarked) [Example 43, 1-(carboxymethyl)-5-(1-hydroxyethyl)-3-(1-mercapto-3-phenyl-2-propyl)hydantoin], with 1100 nM; and `O=C(O)CN1C(=O)N(C(CS)Cc2ccccc2)C(=O)C12Cc1ccccc1C2` (centres unmarked) [Example 44, 1-(carboxymethyl)-3-(1-mercapto-3-phenyl-2-propyl)hydantoin-5-spiro-2'-indane], with 680 nM.
The molecule `O=C(O)CN1C(=O)N(C(CS)Cc2ccccc2)C(=O)C12CCC2` (centres unmarked) [Example 50, 1-(carboxymethyl)-3-(1-mercapto-3-phenyl-2-propyl)-hydantoin-5-spirocyclobutane] had a 50% inhibitory concentration (IC50) of 300 nM.
`O=C(O)CN1C(=O)N(C(CS)Cc2ccccc2)C(=O)C1C1CCCC1` (centres unmarked) [Example 51, 1-(carboxymethyl)-5-cyclopentyl-3-(1-mercapto-3-phenyl-2-propyl)hydantoin] came in with an IC50 of 370 nM.
Still for that read-out and setting: the value for `CC(CS)N1C(=O)N(CC(=O)O)C2(CCCC2)C1=O` (centres unmarked) [Example 63, 1-(carboxymethyl)-3-(1-mercapto-2-propyl)hydantoin-5-spirocyclopentane] was 180 nM.
`CC(C)C(CS)N1C(=O)N(CC(=O)O)C2(CCCC2)C1=O` (centres unmarked) [Example 65, 1-(carboxymethyl)-3-(1-mercapto-3-methyl-2-butyl)hydantoin-5-spirocyclopentane]: half-maximal inhibition (IC50) was put at 1000 nM.
